Measurements taken from article PMC6855808, “Direct binding of phosphatidylglycerol at specific sites modulates desensitization of a ligand-gated ion channel” (eLife, 2019).
Where “and” joins values, the source holds several entries; their conditions need not be identical. Identical values can stand only once. Like-named read-outs stand apart in the source and are kept apart here.

Experiments:
ELIC R301Q/R299Q = target: T1, ELIC R301Q/R299Q (Dickeya chrysanthemi, UniProt P0C7B7, R298Q/R300Q); experiment: Excised patch-clamp recordings from giant liposomes; assay type: biochemical, Erwinia chrysanthemi; settings: 25 mole% POPG
T1 construct: MBP (N, cleaved yes); made in house; host or cells: OverExpress C43 (DE3) E. coli

ELIC R286Q/R299Q = target: T2, ELIC R286Q/R299Q (Dickeya chrysanthemi, UniProt P0C7B7, R285Q/R298Q); experiment: as above; assay type: biochemical, Erwinia chrysanthemi; settings: 25 mole% POPG
T2 construct: MBP (N, cleaved yes); made in house; host or cells: OverExpress C43 (DE3) E. coli

ELIC R286Q = target: T3, ELIC R286Q (Dickeya chrysanthemi, UniProt P0C7B7, R285Q); experiment: as above; assay type: biochemical, Erwinia chrysanthemi; settings: 25 mole% POPG
T3 construct: MBP (N, cleaved yes); made in house; host or cells: OverExpress C43 (DE3) E. coli

ELIC R123Q = target: T4, ELIC R123Q (Dickeya chrysanthemi, UniProt P0C7B7, INS163G/R123Q); experiment: as above; assay type: biochemical, Erwinia chrysanthemi; settings: 25 mole% POPG
T4 construct: MBP (N, cleaved yes); made in house; host or cells: OverExpress C43 (DE3) E. coli

ELIC R123Q/R299Q = target: T5, ELIC R123Q/R299Q (Dickeya chrysanthemi, UniProt P0C7B7, R123Q/R298Q); experiment: as above; assay type: biochemical, Erwinia chrysanthemi; settings: 25 mole% POPG
T5 construct: MBP (N, cleaved yes); made in house; host or cells: OverExpress C43 (DE3) E. coli

ELIC R117Q/R299Q = target: T6, ELIC R117Q/R299Q (Dickeya chrysanthemi, UniProt P0C7B7, R117Q/R298Q); experiment: as above; assay type: biochemical, Erwinia chrysanthemi; settings: 25 mole% POPG
T6 construct: MBP (N, cleaved yes); made in house; host or cells: OverExpress C43 (DE3) E. coli

ELIC R299Q = target: T7, ELIC R299Q (Dickeya chrysanthemi, UniProt P0C7B7, R298Q); experiment: as above; assay type: biochemical, Erwinia chrysanthemi; settings: 25 mole% POPG
T7 construct: MBP (N, cleaved yes); made in house; host or cells: OverExpress C43 (DE3) E. coli

ELIC L238A = target: T8, ELIC L238A (Dickeya chrysanthemi, UniProt P0C7B7, L237A); experiment: as above; assay type: biochemical, Erwinia chrysanthemi; settings: 25 mole% POPG
T8 construct: MBP (N, cleaved yes); made in house; host or cells: OverExpress C43 (DE3) E. coli

ELIC R301Q = target: T9, ELIC R301Q (Dickeya chrysanthemi, UniProt P0C7B7, R300Q); experiment: as above; assay type: biochemical, Erwinia chrysanthemi; settings: 25 mole% POPG
T9 construct: MBP (N, cleaved yes); made in house; host or cells: OverExpress C43 (DE3) E. coli

ELIC R117Q = target: T10, ELIC R117Q (Dickeya chrysanthemi, UniProt P0C7B7, INS163G/R117Q); experiment: as above; assay type: biochemical, Erwinia chrysanthemi; settings: 25 mole% POPG
T10 construct: MBP (N, cleaved yes); made in house; host or cells: OverExpress C43 (DE3) E. coli

ELIC WT [1] = experiment: as above; settings: for EC50: read-out: Dose response EC50 (mM cysteamine), peak current, 0.5 mM BaCl2
ELIC WT [2] = experiment: Sequential-mixing stopped-flow fluorescence Tl+ flux assay in liposomes; assay type: biochemical, Erwinia chrysanthemi; settings: 5 mM cysteamine
ELIC WT [3] = experiment: Native MS phospholipid binding to delipidated ELIC in C10E5; parameters: species or system Erwinia chrysanthemi; settings: binomial binding model, 32 sites of equal affinity; 1 μM ELIC in C10E5; read-out: Dissociation constant K
Method: Native MS analysis was similar to previous descriptions for other membrane proteins ([Gault et al., 2016]). For analysis of ELIC in DDM, 30 μl of purified protein in 0.02% DDM at ~1 mg/ml was buffer exchanged into 200 mM ammonium acetate pH 7.5% and 0.02% DDM using Biospin six gel filtration spin columns (Bio-Rad, Hercules, CA). 2 μl of buffer exchanged ELIC was loaded into a borosilicate capillary emitter (Thermo Scientific, Waltham, MA), and analyzed by static nanospray on a Thermo QExactive EMR mass spectrometer. The following parameters were used to resolve the ELIC pentamer and minimize dissociation into tetramer and monomer: capillary voltage of 1.2 kV, capillary temperature of 200°C, ion transfer optics set with the injection flatapole, inter-flatapole lens, bent flatapole, transfer multiple as 8, 7, 6, 4 V, respectively, resolution 8,750, AGC target 3 × 10^6, trap pressure set to maximum, CID 200 V, and CE 100 V. For analysis of ELIC in C10E5, ELIC delipidated by injecting 300 μg onto a Sephadex 200 10/300 column (GE Healthcare) at 0.5 ml/min pre-equilibrated with Buffer A, 10% glycerol, and 0.06% C10E5 (Anatrace). 30 μl aliquots were then buffer exchanged to 100 mM ammonium acetate pH 7.5, 0.06% C10E5 using Biospin six columns, and diluted to 0.2 mg/ml. MS measurements on the QExactive EMR were performed with the parameters listed above except: capillary temperature 100°C, CID 75 V and CE 200 V. For lipid binding measurements, stocks of POPG lipid were prepared at 2× the concentration of POPG being tested in 100 mM ammonium acetate pH 7.5% and 0.06% C10E5. Lipid stocks were then mixed with 0.4 mg/ml ELIC in a 1:1 vol ratio for a final concentration of 1 μM ELIC, and samples were analyzed after >5 min incubation.
MS spectra were deconvoluted using UniDec ([Marty et al., 2015]); deconvolution of spectra with bound lipid was restricted to the 26+ to 22+ charge states (Figure 1—figure supplement 3). Peak heights of apo and lipid-bound species were extracted from UniDec, and analyzed by two approaches. The average number of bound lipids was determined by the following relationship:(1) Averagenumberboundlipid=∑n=0kn\cdot In/∑n=0kIn where n is the number of bound lipids and In is the deconvoluted peak height of ELIC with n bound lipids. Peak heights of apo and lipid-bound species were also plotted as mole fraction versus the number of bound lipids (Figure 1—figure supplement 4).
Then, the probability (B) that q sites are occupied out of N total sites is given by the binomial probability function:(3) Bq=N!/q!N-q!p^N-q(1-p)^q
B(q) was used to determine the mole fraction of each lipid-bound species at a given [A], which was used to fit the native MS data in Excel across all [A] by setting K constant and varying N or vice versa.

ELIC WT [4] = experiment: Thermal stability assay (SEC pentamer peak after heating); assay type: binding, Erwinia chrysanthemi; settings: 1 μM ELIC in C10E5, 32°C for 15 min
Method: Purified WT ELIC in C10E5 (Buffer A, 0.06% C10E5) was diluted to 1 μM in the absence or presence of various concentrations of phospholipid. Samples were analyzed without and with heating in the absence or presence of phospholipid. […] The stabilizing effect of a phospholipid was quantified as the pentamer amplitude in the presence of phospholipid (heated) divided by control (heated).

[5] = target: the molecule itself; experiment: native MS; ELIC purified in 0.02% DDM, buffer exchanged into 200 mM ammonium acetate pH 7.5, 0.02% DDM; static nanospray, Q-Exactive EMR, CID 200 V, CE 100 V; co-purified lipids bound
[6] = read-out: Cysteamine response EC50

## NCCS [cysteamine]
ELIC R301Q/R299Q; 30 mM cysteamine
  Activation τ: 71 ± 21 ms
  Desensitization norm current at 20 s: 0.030 ± 0.017
  Desensitization weighted τ: 0.45 ± 0.28 s
ELIC R301Q/R299Q; [6]
  EC50: 3.9 ± 0.9 mM
ELIC R286Q/R299Q; 30 mM cysteamine
  Activation τ: 92 ± 27 ms
  Desensitization norm current at 20 s: 0.103 ± 0.032
  Desensitization weighted τ: 2.08 ± 0.65 s
ELIC R286Q/R299Q; [6]
  EC50: 4.7 ± 1.5 mM
ELIC R286Q; 30 mM cysteamine
  Activation τ: 106 ± 34 ms
  Desensitization norm current at 20 s: 0.091 ± 0.023
  Desensitization weighted τ: 1.67 ± 0.24 s
ELIC R286Q; [6]
  EC50: 4.3 ± 0.4 mM
ELIC R123Q; 30 mM cysteamine
  Activation τ: 112 ± 65 ms
  Desensitization norm current at 20 s: 0.067 ± 0.015
  Desensitization weighted τ: 1.20 ± 0.39 s
ELIC R123Q; [6]
  EC50: 3.7 ± 0.9 mM
ELIC R123Q/R299Q; 30 mM cysteamine
  Activation τ: 74 ± 35 ms
  Desensitization norm current at 20 s: 0.041 ± 0.005
  Desensitization weighted τ: 1.66 ± 0.17 s
ELIC R123Q/R299Q; [6]
  EC50: 3.7 ± 0.6 mM
ELIC R117Q/R299Q; 30 mM cysteamine
  Activation τ: 54 ± 26 ms
  Desensitization norm current at 20 s: 0.025 ± 0.004
  Desensitization weighted τ: 1.13 ± 0.24 s
ELIC R117Q/R299Q; [6]
  EC50: 2.4 ± 0.7 mM
ELIC R299Q; 30 mM cysteamine
  Activation τ: 71 ± 27 ms
  Desensitization norm current at 20 s: 0.074 ± 0.008
  Desensitization weighted τ: 2.2 ± 0.17 s
ELIC R299Q; [6]
  EC50: 4.7 ± 0.3 mM
ELIC L238A; 30 mM cysteamine
  Activation τ: 113 ± 51 ms
  Desensitization norm current at 20 s: 0.374 ± 0.045
  Desensitization weighted τ: 5.90 ± 1.37 s
ELIC L238A; [6]
  EC50: 4.9 ± 1.1 mM
ELIC R301Q; 30 mM cysteamine
  Activation τ: 72 ± 15 ms
  Desensitization norm current at 20 s: 0.045 ± 0.017
  Desensitization weighted τ: 0.66 ± 0.28 s
ELIC R301Q; [6]
  EC50: 5.2 ± 0.8 mM
ELIC R117Q; 30 mM cysteamine
  Activation τ: 54 ± 40 ms
  Desensitization norm current at 20 s: 0.060 ± 0.020
  Desensitization weighted τ: 1.49 ± 0.40 s
ELIC R117Q; [6]
  EC50: 3.3 ± 0.9 mM
ELIC WT [1]; 25 mole% POPG, 30 mM cysteamine
  Activation τ: 134 ms and 134 ± 50 ms
ELIC WT [1]; 25 mole% POPG, 30 mM cysteamine, normalized to peak response
  Desensitization norm current at 20 s: 0.100 ± 0.041
ELIC WT [1]; 12 mole% POPG
  EC50: 5.3 ± 1 mM
ELIC WT [1]; 25 mole% POPG
  EC50: 5.1 ± 1.2 mM
ELIC WT [1]; 40 mole% POPG
  EC50: 6.5 ± 1.3 mM

## CCCCCCCC/C=C\CCCCCCCC(=O)O[C@H](COC(=O)CCCCCCCCCCCCCCC)COP(=O)([O-])OCC[N+](C)(C)C [POPC, 1-palmitoyl-2-oleoyl-phosphatidylcholine]
ELIC WT [2]
  Fold faster rate of desensitization in POPC liposomes vs POPC:POPE:POPG liposomes: more than 20 fold
ELIC WT [2]; liposome composition as labelled, double exponential fit, fast component
  Activation τ: 39 ± 17 ms
ELIC WT [2]; liposome composition as labelled, double exponential fit, slow component
  Desensitization τ: 0.42 ± 0.05 s
ELIC WT [3]
  Kd: 0.28 mM
ELIC WT [4]
  Effect on ELIC stability against thermal denaturation: no effect

## CCCCCCCC/C=C\CCCCCCCC(=O)O[C@H](COC(=O)CCCCCCCCCCCCCCC)COP(=O)(O)OCCN [POPE, 1-palmitoyl-2-oleoyl-phosphatidylethanolamine]
ELIC WT [3]
  Kd: 0.19 mM
ELIC WT [4]
  Effect on ELIC stability against thermal denaturation: no effect

B1: Erwinia ligand-gated ion channel (ELIC), wild type (natural protein, Erwinia chrysanthemi, UniProt P0C7B7 1-321, looked up)
chain: APADNAADARPVDVSVSIFINKIYGVNTLEQTYKVDGYIVAQWTGKPRKTPGDKPLIVENTQIERWINNGLWVPALEFINVVGSPDTGNKRLMLFPDGRVIYNARFLGSFSNDMDFRLFPFDRQQFVLELEPFSYNNQQLRFSDIQVYTENIDNEEIDEWWIRKASTHISDIRYDHLSSVQPNQNEFSRITVRIDAVRNPSYYLWSFILPLGLIIAASWSVFWLESFSERLQTSFTLMLTVVAYAFYTSNILPRLPYTTVIDQMIIAGYGSIFAAILLIIFAHHRQAMGVEDDLLIQRCRLAFPLGFLAIGCVLVIRGITL
notes: Erwinia ligand-gated ion channel (ELIC), a pentameric ligand-gated ion channel of Erwinia chrysanthemi; expressed from pET26-MBP-ELIC (Addgene plasmid 39239); MBP was removed with HRV-3C protease before size exclusion; also called ELIC WT; WT; source: OverExpress C43 (DE3) E. coli, purified (membranes solubilized in DDM, amylose resin, HRV-3C digestion, size exclusion)
[5]
  stoichiometry N: 5
